Laboratory results published in US11365181B2, “P-phenylenediamine derivative as potassium channel regulator and preparation method and medical application thereof” (Shanghai Zhimeng Biopharma, Inc., priority 2018, dated 2022).
pEC50: −log10 of the molar value.

Columns and labels:
[1] = biological target: KCNQ2 potassium channel (CHO-KCNQ2 cells) (Homo sapiens (Human), UniProt O43526); experiment: Activity test of potassium ion channel opener (FDSS/μCELL detection, FluxOR potassium ion channel assay); format: cell-based; details: CHO-KCNQ2 cells, FluxOR fluorescence, FDSS/μCELL
Procedure: Activity Test of Potassium Ion Channel Opener (FDSS/ρCELL Detection)
Cell preparation: CHO-KCNQ2 cells were cultured in a 175 cm^2 culture flask, and when the cells was grown to a density of 60-80%, the culture medium was removed, washed with 7 mL PBS (Phosphate Buffered Saline) once, then 3 mL 0.25% Trypsin was added to digest. After the digestion was completed, 7 mL culture medium (90% DMEM/F12+10% FBS+500 μg/mL G418) was added to neutralize, centrifugated for 3 minutes at 800 rpm. The supernatant was aspirated, then 5 mL culture medium was added to resuspend, and then the cells were counted.
Cell plating: The density to 3×10^4/well was adjusted according to the results of cell counting. After standing at room temperature for 30 minutes, the cells were placed in a 37° C. CO2 incubator and incubated overnight for 16-18 hours. The cell density reached about 80%.
Fluorescent dye incubation: The cell culture medium was discarded, 80 μL/well loading buffer was added, and the cells were incubated in dark at room temperature for 60 minutes.
Compound incubation: the loading buffer was discarded, 80 μL/well prepared compound solution was added, incubated at room temperature and in dark for 20 minutes.
Fluorescence data collection: FDSS/μCELL instrument for real-time fluorescence is used for signal recording, wherein excitation wavelength was 480 nm, emission wavelength was 540 nm, and signals were recorded 1 times per second, after baseline was recorded for 10 seconds, the addition of 20 μL/well stimulation buffer was started, and then the signal was continuously record until the end of 180 seconds.
loading buffer: 10 mL/plate, the preparation method was as follows:
Test buffer sample: 100 mL/plate, the preparation method was as follows:
Stimulation buffer: 5 mL/plate, the preparation method was as follows:
The above buffer was from a commercially available kit, the kit name was FluxOR potassium ion channel assay, the manufacturer's brand was Invitrogen, the article number was F10017, the lot number was 913728.
20 mM DMSO compound mother liquor was prepared, 10 μL of 20 mM compound mother liquor was took and added into 20 μL DMSO solution, serially diluted 3 times to 8 intermediate concentrations; then the middle concentration of the compound was took to the test buffer, 200 times dilution to get the final concentration to be tested, 80 μL was took and added to the test plate.
The highest test concentration was 100 μM, followed by […], 33.33, 11.11, 3.70, 1.23, 0.41, 0.137, 0.045 μM, total 8 concentrations. Each concentration 3 replicate holes.
This concentration of DMSO had no effect on the KCNQ2 potassium channel.
Experimental data was analyzed by Excel 2007 and GraphPad Prism 5.0 software, and the ratio of 180 seconds was calculated to calculate the excitement effect. The excitement effect of the compound is calculated by the following formula: […]
Environment: Temperature about 25° C.
Reagent: FluxOR™ Detection Kit (Invitrogen, Cat #[…])
The experimental data in the report might meet the following criteria: Z′ Factor>0.5
2. Determination Results: See Table 1 for Details, where the Smaller EC50 was, the Higher the Activity of the Corresponding Compound was.
References for the above test methods:
(2) Jinfeng Yue et al. Acta Pharmacologica Sinica, 2016, 37:105-110.

[2] = Cerebral blood ratio of compound A in previous studies; format: in vivo; details: brain/blood
Excerpt: It can be seen from the results in Table 4 that after oral administration of compounds 03043 and 03044 to male SD rats, they have a good cerebral blood ratio (1.0-2.4) at each time point.

Chain of KCNQ2 potassium channel (CHO-KCNQ2 cells) (O43526 whole entry): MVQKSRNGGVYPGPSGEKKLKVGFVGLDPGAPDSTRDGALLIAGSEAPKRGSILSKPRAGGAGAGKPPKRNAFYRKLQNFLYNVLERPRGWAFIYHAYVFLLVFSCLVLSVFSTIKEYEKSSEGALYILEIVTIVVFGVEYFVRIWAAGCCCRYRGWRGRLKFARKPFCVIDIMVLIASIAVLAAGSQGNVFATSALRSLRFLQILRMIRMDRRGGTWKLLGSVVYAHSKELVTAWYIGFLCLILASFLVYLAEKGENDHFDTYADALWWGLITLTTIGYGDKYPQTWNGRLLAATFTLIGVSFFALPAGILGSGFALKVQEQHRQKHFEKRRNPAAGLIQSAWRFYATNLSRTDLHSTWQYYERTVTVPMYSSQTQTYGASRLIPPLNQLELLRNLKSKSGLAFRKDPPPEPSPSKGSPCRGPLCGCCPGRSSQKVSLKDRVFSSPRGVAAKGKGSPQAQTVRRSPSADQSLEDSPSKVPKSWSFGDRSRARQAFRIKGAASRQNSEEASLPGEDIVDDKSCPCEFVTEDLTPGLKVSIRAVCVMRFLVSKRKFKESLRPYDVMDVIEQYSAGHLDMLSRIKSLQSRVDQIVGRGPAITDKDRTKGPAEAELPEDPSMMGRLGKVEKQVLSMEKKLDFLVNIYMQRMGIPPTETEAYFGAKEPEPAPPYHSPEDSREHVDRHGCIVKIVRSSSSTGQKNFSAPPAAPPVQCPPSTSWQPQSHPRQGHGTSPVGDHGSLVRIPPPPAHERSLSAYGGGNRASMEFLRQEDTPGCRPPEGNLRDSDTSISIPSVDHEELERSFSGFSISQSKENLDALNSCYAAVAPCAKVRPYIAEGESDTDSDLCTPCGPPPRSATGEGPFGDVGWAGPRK

- pEC50 [1]: 7.19
- Kp at 2 h ([2]; at 2 h): 0.56
- Kp at 4 h ([2]; at 4 h): 0.46
- Kp ([2]; overall): ~0.5
Compound: Cc1cc(N2CCc3sc(Cl)cc3C2)cc(C)c1NC(=O)CC(C)(C)C [Compound A]
